Assay [1] can be described thus: Cytotoxicity against human HT-29 cells after 72 hrs by MTT assay. The note with it: HT-29, 72 h.
Assay [2] in a line: Cytotoxicity against human A549 cells after 72 hrs by MTT assay. The note with it: A549, 72 h.
Assay [3] can be described thus: Cytotoxicity against human MKN45 cells after 72 hrs by MTT assay. The note with it: MKN-45, 72 h.
The test system of another assay is A549. Description: Potency index, ratio of foretinib IC50 to compound IC50 for human A549 cells. In kind it is functional.
Another assay deals with HT-29. Description: Potency index, ratio of foretinib IC50 to compound IC50 for human HT-29 cells. It counts as functional.
For another assay, the system named is MKN-45. Description: Potency index, ratio of foretinib IC50 to compound IC50 for human MKN45 cells. It counts as functional.
The target of assay [4] is Epidermal growth factor receptor (Homo sapiens, UniProt P00533). Description: Inhibition of EGFR (unknown origin).
For assay [5], the target named is ALK tyrosine kinase receptor (Homo sapiens, UniProt Q9UM73). Description: Inhibition of ALK (unknown origin).
Assay [6] concerns the target Mast/stem cell growth factor receptor Kit (Homo sapiens, UniProt P10721). Description: Inhibition of c-KIT (unknown origin).
Assay [7] concerns the target T1, Receptor-type tyrosine-protein kinase FLT3 (Homo sapiens, UniProt P36888).
T1 sequence (P36888 whole entry): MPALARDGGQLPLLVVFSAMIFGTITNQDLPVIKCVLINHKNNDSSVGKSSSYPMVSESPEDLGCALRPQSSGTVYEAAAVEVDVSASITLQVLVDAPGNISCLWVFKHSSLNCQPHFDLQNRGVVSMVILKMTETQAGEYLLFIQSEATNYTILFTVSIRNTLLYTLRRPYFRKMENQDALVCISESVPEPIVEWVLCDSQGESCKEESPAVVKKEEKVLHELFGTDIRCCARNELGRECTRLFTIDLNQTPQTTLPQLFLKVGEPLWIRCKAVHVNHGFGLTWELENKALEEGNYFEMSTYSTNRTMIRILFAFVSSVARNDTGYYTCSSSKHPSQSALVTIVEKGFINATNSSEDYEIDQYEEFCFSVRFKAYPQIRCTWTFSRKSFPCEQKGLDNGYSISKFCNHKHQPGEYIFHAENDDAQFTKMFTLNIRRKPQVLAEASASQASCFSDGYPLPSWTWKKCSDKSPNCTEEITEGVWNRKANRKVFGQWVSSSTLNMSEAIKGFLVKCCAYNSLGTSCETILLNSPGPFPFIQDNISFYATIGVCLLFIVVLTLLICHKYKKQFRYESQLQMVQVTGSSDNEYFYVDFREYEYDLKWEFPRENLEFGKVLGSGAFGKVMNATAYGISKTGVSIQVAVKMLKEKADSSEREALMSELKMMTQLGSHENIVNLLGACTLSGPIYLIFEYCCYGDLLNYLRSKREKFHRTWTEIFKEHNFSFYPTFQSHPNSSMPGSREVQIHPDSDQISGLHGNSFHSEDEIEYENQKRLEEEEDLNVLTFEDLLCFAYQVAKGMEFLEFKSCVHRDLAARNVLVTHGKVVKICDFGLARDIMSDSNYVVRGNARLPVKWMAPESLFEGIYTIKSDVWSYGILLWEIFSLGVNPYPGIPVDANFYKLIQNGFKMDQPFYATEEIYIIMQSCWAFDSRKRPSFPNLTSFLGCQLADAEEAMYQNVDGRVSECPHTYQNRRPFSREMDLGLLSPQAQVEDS
Description: Inhibition of FLT3 (unknown origin).

For assay [8], the target named is Hepatocyte growth factor receptor (Homo sapiens, UniProt P08581). Description: Inhibition of c-MET (unknown origin) using poly (Glu, Tyr) 4:1 as substrate after 30 mins by HTRF assay.
The target of assay [9] is Vascular endothelial growth factor receptor 2 (Homo sapiens, UniProt P35968). Description: Inhibition of VEGFR-2 (unknown origin).
Sequence of Vascular endothelial growth factor receptor 2 (P35968 whole entry): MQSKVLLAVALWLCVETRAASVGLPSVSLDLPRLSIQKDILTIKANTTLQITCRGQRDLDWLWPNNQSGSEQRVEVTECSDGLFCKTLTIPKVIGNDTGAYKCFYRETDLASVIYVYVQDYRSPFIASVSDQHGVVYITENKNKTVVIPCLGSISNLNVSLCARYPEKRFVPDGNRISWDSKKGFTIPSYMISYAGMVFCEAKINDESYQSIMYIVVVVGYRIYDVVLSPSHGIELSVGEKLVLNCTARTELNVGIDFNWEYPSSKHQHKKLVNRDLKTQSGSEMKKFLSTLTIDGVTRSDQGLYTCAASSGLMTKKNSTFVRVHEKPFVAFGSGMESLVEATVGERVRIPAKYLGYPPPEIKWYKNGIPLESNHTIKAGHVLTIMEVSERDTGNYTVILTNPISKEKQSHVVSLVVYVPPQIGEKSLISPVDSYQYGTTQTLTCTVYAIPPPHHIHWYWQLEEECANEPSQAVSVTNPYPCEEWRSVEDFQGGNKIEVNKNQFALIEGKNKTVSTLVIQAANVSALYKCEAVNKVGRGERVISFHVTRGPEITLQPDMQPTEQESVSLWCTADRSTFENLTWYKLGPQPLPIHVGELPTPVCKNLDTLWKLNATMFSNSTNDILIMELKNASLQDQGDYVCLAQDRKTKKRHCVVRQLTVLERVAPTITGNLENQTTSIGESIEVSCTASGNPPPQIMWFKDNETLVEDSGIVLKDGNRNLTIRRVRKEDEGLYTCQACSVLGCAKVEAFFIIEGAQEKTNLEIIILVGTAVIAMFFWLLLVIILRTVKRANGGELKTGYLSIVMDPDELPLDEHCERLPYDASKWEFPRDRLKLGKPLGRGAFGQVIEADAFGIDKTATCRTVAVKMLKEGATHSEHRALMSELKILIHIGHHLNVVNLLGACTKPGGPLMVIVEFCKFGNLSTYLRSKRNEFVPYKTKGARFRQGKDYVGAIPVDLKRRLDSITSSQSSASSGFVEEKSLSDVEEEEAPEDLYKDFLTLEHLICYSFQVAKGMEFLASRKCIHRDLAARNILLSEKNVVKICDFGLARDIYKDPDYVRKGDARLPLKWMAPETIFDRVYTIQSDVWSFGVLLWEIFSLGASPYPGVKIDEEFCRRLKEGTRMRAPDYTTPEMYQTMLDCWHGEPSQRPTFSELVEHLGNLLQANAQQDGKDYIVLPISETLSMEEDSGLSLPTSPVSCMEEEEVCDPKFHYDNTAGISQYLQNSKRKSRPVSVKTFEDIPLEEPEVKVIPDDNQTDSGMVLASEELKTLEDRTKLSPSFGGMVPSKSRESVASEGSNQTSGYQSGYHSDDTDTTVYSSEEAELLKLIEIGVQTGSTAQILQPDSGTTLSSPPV

Sequence of Epidermal growth factor receptor (P00533 whole entry): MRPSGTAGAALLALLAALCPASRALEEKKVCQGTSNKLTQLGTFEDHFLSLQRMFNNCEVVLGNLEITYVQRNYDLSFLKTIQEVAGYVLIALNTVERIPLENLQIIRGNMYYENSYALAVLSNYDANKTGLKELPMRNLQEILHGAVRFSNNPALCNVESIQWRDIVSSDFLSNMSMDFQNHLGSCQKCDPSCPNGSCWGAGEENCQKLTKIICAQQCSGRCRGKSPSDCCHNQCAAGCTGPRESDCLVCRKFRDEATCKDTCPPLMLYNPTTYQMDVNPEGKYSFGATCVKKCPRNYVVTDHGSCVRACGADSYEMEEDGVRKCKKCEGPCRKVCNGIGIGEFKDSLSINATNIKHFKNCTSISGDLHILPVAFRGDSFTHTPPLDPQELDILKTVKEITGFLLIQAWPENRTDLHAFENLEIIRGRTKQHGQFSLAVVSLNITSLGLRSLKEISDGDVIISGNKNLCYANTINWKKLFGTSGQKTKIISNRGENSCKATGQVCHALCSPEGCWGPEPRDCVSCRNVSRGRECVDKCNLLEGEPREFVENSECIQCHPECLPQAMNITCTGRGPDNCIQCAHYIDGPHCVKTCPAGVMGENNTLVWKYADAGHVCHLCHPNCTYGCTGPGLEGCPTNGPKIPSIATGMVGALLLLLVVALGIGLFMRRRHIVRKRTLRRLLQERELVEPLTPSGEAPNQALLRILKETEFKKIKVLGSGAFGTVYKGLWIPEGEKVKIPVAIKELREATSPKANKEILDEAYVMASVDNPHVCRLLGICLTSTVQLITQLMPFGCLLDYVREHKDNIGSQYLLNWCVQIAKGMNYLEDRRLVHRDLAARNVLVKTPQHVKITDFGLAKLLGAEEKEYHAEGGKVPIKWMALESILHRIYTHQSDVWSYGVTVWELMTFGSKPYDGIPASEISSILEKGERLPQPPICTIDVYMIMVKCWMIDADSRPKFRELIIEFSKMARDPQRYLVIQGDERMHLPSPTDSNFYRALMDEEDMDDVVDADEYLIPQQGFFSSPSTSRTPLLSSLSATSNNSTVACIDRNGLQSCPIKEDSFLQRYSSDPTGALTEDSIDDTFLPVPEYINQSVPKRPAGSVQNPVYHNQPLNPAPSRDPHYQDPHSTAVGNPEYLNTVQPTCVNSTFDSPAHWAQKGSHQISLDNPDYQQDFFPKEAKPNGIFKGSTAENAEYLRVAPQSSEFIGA
Sequence of Hepatocyte growth factor receptor (P08581 whole entry): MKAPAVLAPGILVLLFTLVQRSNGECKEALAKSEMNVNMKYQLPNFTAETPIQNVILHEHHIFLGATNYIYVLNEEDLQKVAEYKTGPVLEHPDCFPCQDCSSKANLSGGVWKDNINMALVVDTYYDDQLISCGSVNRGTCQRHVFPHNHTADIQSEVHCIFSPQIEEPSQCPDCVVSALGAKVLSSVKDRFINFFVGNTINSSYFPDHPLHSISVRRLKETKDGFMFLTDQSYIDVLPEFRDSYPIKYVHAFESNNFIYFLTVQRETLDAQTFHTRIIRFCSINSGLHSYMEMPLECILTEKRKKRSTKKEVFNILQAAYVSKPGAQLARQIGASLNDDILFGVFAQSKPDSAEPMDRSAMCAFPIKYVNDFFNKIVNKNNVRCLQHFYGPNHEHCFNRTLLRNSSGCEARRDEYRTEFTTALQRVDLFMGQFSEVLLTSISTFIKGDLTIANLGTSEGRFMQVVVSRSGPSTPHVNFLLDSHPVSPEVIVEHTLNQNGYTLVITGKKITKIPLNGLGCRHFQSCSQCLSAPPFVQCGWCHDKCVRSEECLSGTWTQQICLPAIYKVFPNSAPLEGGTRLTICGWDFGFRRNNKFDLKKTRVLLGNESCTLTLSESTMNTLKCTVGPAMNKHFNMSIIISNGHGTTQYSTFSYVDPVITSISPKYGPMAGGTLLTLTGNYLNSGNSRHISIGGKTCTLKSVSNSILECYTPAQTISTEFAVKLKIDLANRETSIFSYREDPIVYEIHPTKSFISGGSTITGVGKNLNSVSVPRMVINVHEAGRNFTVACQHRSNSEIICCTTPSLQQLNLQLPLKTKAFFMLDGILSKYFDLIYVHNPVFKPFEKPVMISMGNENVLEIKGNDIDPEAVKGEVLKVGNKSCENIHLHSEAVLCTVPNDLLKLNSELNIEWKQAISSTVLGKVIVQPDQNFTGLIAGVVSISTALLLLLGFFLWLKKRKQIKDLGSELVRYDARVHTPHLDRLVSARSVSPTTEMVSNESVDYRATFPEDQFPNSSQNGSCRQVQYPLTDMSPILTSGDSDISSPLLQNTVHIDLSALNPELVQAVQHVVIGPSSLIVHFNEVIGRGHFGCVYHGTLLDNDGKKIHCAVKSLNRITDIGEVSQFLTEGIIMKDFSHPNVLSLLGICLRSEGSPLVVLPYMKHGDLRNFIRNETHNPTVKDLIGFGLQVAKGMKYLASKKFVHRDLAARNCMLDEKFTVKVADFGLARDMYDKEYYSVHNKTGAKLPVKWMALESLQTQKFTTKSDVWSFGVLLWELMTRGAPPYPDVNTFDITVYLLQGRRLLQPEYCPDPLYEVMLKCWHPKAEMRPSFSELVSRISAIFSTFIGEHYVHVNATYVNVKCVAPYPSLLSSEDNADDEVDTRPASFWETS
Sequence of Mast/stem cell growth factor receptor Kit (P10721 whole entry): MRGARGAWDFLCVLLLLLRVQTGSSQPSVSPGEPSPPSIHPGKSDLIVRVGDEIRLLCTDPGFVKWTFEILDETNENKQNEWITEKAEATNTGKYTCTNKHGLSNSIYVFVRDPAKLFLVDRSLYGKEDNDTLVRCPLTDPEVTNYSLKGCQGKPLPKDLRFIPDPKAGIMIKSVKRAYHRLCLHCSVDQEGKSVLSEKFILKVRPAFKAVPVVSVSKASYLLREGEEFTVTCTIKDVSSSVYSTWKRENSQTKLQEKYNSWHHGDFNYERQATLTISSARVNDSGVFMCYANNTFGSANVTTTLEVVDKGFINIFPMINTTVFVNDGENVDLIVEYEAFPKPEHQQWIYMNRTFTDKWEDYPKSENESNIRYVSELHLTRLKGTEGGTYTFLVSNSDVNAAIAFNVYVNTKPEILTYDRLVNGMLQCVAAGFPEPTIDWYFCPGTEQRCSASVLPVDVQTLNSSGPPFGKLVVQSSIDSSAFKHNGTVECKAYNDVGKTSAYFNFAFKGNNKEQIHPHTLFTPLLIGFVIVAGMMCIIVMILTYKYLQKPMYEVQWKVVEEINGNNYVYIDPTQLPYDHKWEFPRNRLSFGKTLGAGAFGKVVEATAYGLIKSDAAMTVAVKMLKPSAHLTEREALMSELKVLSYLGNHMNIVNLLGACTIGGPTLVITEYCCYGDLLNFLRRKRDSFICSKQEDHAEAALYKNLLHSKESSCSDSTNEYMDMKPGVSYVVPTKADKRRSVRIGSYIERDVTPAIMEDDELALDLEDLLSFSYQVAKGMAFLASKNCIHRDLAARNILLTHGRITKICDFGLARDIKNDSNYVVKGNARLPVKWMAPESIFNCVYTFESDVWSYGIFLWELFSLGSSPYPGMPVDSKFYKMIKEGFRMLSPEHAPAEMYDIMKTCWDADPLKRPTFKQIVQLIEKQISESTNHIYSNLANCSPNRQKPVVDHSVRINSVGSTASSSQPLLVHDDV

As for `COc1cc2c(Oc3ccc(NC(=O)/C=C/S(=O)(=O)c4ccccc4OC)cc3F)ccnc2cc1OCCCN1CCN(C)CC1`, the IC50 in assay [1] came out at 0.27 µM; in assay [2], 0.32 µM; in assay [3], 0.43 µM.
The matching figures for `COc1cc2c(Oc3ccc(NC(=O)c4cn(-c5ccc(Cl)cc5)cn4)cc3F)ccnc2cc1OCCCN1CCN(C)CC1`: 1.35 µM, 5.2 µM and 4.11 µM.
The matching figures for `COc1cc2c(Oc3ccc(NC(=O)c4cn(-c5ccccc5OC)cn4)cc3F)ccnc2cc1OCCCN1CCOCC1`: 0.2 µM, 0.15 µM and 0.32 µM.
For `COc1cc2c(Oc3ccc(NC(=O)/C=C/S(=O)(=O)c4ccccc4OC)cc3F)ccnc2cc1OCCCN1CCCCC1` the same measures were 0.66 µM, 0.47 µM and 0.98 µM.
Consider `COc1cc2c(Oc3ccc(NC(=O)/C=C/S(=O)(=O)c4ccc(C)cc4)cc3F)ccnc2cc1OCCCN1CCN(C)CC1`, for which the IC50 in assay [1] was found to be 2.07 µM; in [2], 1.51 µM; in assay [3] it was 2.51 µM.
On to `COc1cc2c(Oc3ccc(NC(=O)c4cn(-c5ccccc5OC)cn4)cc3F)ccnc2cc1OCCCN1CCCCC1`, for which the IC50 in assay [1] came out at 0.1 µM; in assay [2], 0.12 µM; in assay [3] it was 0.26 µM.
The matching figures for `COc1cc2c(Oc3ccc(NC(=O)c4cn(-c5ccc(Cl)cc5)cn4)cc3F)ccnc2cc1OCCCN1CCCCC1`: 2.78 µM, 6.56 µM and 5.91 µM.
As for `COc1cc2c(Oc3ccc(NC(=O)c4cn(-c5cc(C)ccc5C)cn4)cc3F)ccnc2cc1OCCCN1CCN(C)CC1`, the IC50 in assay [1] stood at 0.47 µM; in assay [2], 0.35 µM; in [3], 0.65 µM.
For `COc1ccc(S(=O)(=O)/C=C/C(=O)Nc2ccc(Oc3ccnc4cc(OCCCN5CCCCC5)c(OC)cc34)c(F)c2)cc1` the same measures were 1.65 µM, 2.22 µM and 3.58 µM.
For `COc1cc2c(Oc3ccc(NC(=O)c4cn(-c5ccccc5OC(F)(F)F)cn4)cc3F)ccnc2cc1OCCCN1CCCCC1` the same measures were 0.25 µM, 0.27 µM and 0.19 µM.
The matching figures for `COc1cc2c(Oc3ccc(NC(=O)c4cn(-c5ccccc5OC(F)(F)F)cn4)cc3F)ccnc2cc1OCCCN1CCOCC1`: 0.43 µM, 0.52 µM and 0.18 µM.
Take `COc1cc2c(Oc3ccc(NC(=O)/C=C/S(=O)(=O)c4ccccc4F)cc3F)ccnc2cc1OCCCN1CCN(C)CC1`: the IC50 in assay [1] was 0.15 µM; in assay [2], 0.15 µM; in assay [3], 0.28 µM.
With `COc1cc2c(Oc3ccc(NC(=O)/C=C/S(=O)(=O)c4ccccc4OC)cc3F)ccnc2cc1OCCCN1CCC(C)CC1`, the IC50 came to 1.96 µM in assay [1], 3 µM in assay [2] and 2.03 µM in [3].
For `COc1ccc(S(=O)(=O)/C=C/C(=O)Nc2ccc(Oc3ccnc4cc(OCCCN5CCN(C)CC5)c(OC)cc34)c(F)c2)cc1` the same measures were 1.66 µM, 1.87 µM and 2.77 µM.
The matching figures for `COc1cc2c(Oc3ccc(NC(=O)c4cn(-c5ccc(Cl)cc5Cl)cn4)cc3F)ccnc2cc1OCCCN1CCCCC1`: 4.3 µM, 7.49 µM and 6.24 µM.
The matching figures for `COc1cc2c(Oc3ccc(NC(=O)c4cn(-c5cc(C)ccc5C)cn4)cc3F)ccnc2cc1OCCCN1CCCCC1`: 0.58 µM, 0.51 µM and 0.83 µM.
With `COc1cc2c(Oc3ccc(NC(=O)c4cn(-c5ccccc5OC)cn4)cc3F)ccnc2cc1OCCCN1CCN(C)CC1`, the “Ratio IC50” value in the assay with A549 amounted to 2.1; in the assay on HT-29, 3.1; in the assay on MKN-45, 1.4. The IC50 in assay [4] was 0.69 µM; in assay [5], greater than 3.33 µM; in [6] it was 0.27 µM; in [7], 0.4 µM; in assay [1], 0.08 µM; in [2], 0.07 µM. Also, the IC50 in [8] stood at 0.0011 µM; in assay [3] it was 0.22 µM; in assay [9] it was 0.589 µM.
`COc1cc2c(Oc3ccc(NC(=O)c4cn(-c5ccc(Cl)cc5Cl)cn4)cc3F)ccnc2cc1OCCCN1CCN(C)CC1`: the concentration for half-maximal inhibition (IC50) in assay [1] came to 3.05 µM; in assay [2], 3.85 µM; in [3] it was 4.84 µM.
For `COc1cc2c(Oc3ccc(NC(=O)/C=C/S(=O)(=O)c4ccc(C)cc4)cc3F)ccnc2cc1OCCCN1CCCCC1` the same measures were 4.23 µM, 2.31 µM and 1.69 µM.
The matching figures for `COc1cc2c(Oc3ccc(NC(=O)/C=C/S(=O)(=O)c4ccccc4F)cc3F)ccnc2cc1OCCCN1CCC(C)CC1`: 0.76 µM, 0.41 µM and 0.84 µM.
Regarding `COc1cc2c(Oc3ccc(NC(=O)/C=C/S(=O)(=O)c4ccccc4F)cc3F)ccnc2cc1OCCCN1CCOCC1`, the concentration for half-maximal inhibition (IC50) in assay [1] worked out at 0.6 µM; in assay [2] it was 0.21 µM; in [3], 0.42 µM.
For `COc1cc2c(Oc3ccc(NC(=O)c4cn(-c5ccccc5OC(F)(F)F)cn4)cc3F)ccnc2cc1OCCCN1CCC(C)CC1` the same measures were 0.69 µM, 0.76 µM and 0.15 µM.
The matching figures for `COc1cc2c(Oc3ccc(NC(=O)/C=C/S(=O)(=O)c4ccccc4OC)cc3F)ccnc2cc1OCCCN1CCOCC1`: 1.18 µM, 0.77 µM and 1.47 µM.
For `COc1cc2c(Oc3ccc(NC(=O)c4cn(-c5ccccc5OC)cn4)cc3F)ccnc2cc1OCCCN1CCC(C)CC1` the same measures were 0.3 µM, 0.4 µM and 0.6 µM.
For the compound `COc1cc2c(Oc3ccc(NC(=O)c4cn(-c5ccccc5OC(F)(F)F)cn4)cc3F)ccnc2cc1OCCCN1CCN(C)CC1`, the IC50 in assay [1] came out at 0.17 µM; in assay [2], 0.13 µM; in assay [3], 0.12 µM.
For `COc1cc2c(Oc3ccc(NC(=O)c4cn(-c5cc(C)ccc5C)cn4)cc3F)ccnc2cc1OCCCN1CCC(C)CC1` the same measures were 2.22 µM, 7.42 µM and 5.65 µM.
For `COc1cc2c(Oc3ccc(NC(=O)c4cn(-c5cc(C)ccc5C)cn4)cc3F)ccnc2cc1OCCCN1CCOCC1` the same measures were 1.96 µM, 5.48 µM and 3.2 µM.

Source of the values: ChEMBL document CHEMBL3872279, “Design, synthesis and biological evaluation of novel 4-(2-fluorophenoxy)quinoline derivatives as selective c-Met inhibitors” (Bioorg Med Chem, 2017).
